Reference: patent publication US20150330992A1, “RAPID DISCOVERY AND SCREENING OF ENZYME ACTIVITY USING MASS SPECTROMETRY” (THE REGENTS OF THE UNIVERSITY OF CALIFORNIA, priority 2012, published 2015)
Like-named read-outs stand apart in the source and are kept apart here.

What was measured:
[1] = biological target: T1, cytochrome P450BM3 (Priestia megaterium, UniProt P14779); assay: Whole-cell PECAN detection of cytochrome P450BM3 activity; assay type: cell-based, E. coli; conditions: 2 mM probe, 30° C., 16 h; versus GFP control
T1 construct: expressed in transfected cells; host or cells: E. coli liquid culture in terrific broth with d-aminolevulinic acid
Protocol: The CAEE PECAN probe was used to detect cytochrome P450BM3 activity in whole E. coli cell culture expressing cytochrome P450BM3 using NIMS technology. To 5 mL of E. coli liquid culture in teriffic broth supplemented with 0.5 mM d-aminolevulinic acid, expressing either GFP or cytochrome P450BM3, was added the CAEE PECAN probe to a final concentration of 2 mM and DMSO to a final concentration of 2%. The bacterial cultures were shaken in baffled borosilicate culture tubes at 30° C. for 16 h and quenched with an equal volume of methanol. 5 uL, of this mixture was then mixed with 5 uL, of click reaction solution [50 mM Tris(3-hydroxypropyltriazolylinethyl)amine (THPTA), 50 mM sodium ascorbate, 10 mM copper sulfate and 0.5 mM PECAN tag Nz-NPrg (structure shown below) in 50:50 water:methanol] and left to react overnight. NIMS analysis was performed as described above.

[2] = biological target: T2, chloramphenicol acetyltransferase (CAT) (Escherichia coli, UniProt P62577); assay: PECAN detection of CAT activity in E. coli cell lysate; assay type: biochemical; parameters: expressed in transfected cells; host or cells: E. coli DH1 harboring pBbB8k-CAT, arabinose-induced, sonicated lysate; conditions: cell lysate with added acetyl-CoA, 2 mM probe
Protocol: Acetyl-CoA was added to a final concentration of 5 mM and the ChlorHexy PECAN probe to a final concentration of 2 mM. […] 5 uL, of the mixture was then mixed with 5 uL of click reaction solution [50 mM Tris(3-hydroxypropyltriazolylmethyl)amine (THPTA), 50 mM sodium ascorbate, 10 mM copper sulfate and 0.5 mM PECAN tag Nz-N3 (structure shown below) in 50:50 water:methanol] and left to react overnight. […] The spotted area was washed with 2×1 μL deionized water and NIMS spectra were obtained.

[3] = biological target: T2, chloramphenicol acetyltransferase (CAT); assay: PECAN detection of CAT activity in whole E. coli cell culture; assay type: cell-based; parameters: expressed in transfected cells; host or cells: E. coli DH1 harboring pBbB8k-CAT, arabinose-induced, sonicated lysate; conditions: whole cell culture without exogenous cofactors, 2 mM probe, 1 h
Protocol: For the detection of CAT activity in E. coli cell culture, to 5 mL, of E. coli culture in LB medium expressing either GFP or CAT was added the ChlorHexy PECAN probe to a final concentration of 2 mM. The bacterial cultures were shaken at 37° C. for 1 h and quenched with an equal volume of methanol. 5 uL of this mixture was then mixed with 5 ul, of click reaction solution (recipe described above) and left to react overnight. NIMS analysis was performed as described above.
In FIG. 25, the 42-mass unit shift relative to the GFP control was the mass of a single acetyl group attached to the probe.

[4] = system: Alicycyclobacillus acidocaldarius β-glucosidase; assay: Steady-state kinetic analysis of β-glucosidase with varied cellobiose by oxime-NIMS; assay type: biochemical; conditions: 95% confidence level, r^2=0.997
Protocol: A velocity versus substrate concentration analysis was used to determine the kinetic parameters for β-glucosidase (Aa-βG) from the thermoacidophilic bacterium Alicycyclobacillus acidocaldarius 22 using pure cellobiose as substrate. The experimental data were analyzed using the NonlinearModelFit routine of Mathematic v.8 (Wolfram Research) and v=kcat [S]/(KM+[S]) (kcat, KM, and [S] have their usual definitions).
Glucose formed at different time points from the reaction of Alicycyclobacillus acidocaldarius β-glucosidase with varied cellobiose concentration was quantified and used for steady-state kinetic analysis. The data were analysed using the NonlinearModelFit routine of Mathematic v.8 and v=kcat [S]/(KM+[S]), where kcat, KM, and [S] have their usual definitions.

[5] = system: Alicycyclobacillus acidocaldarius β-glucosidase; conditions: lacking error analysis; read-out: KM, previously reported; cited from earlier work
[6] = biological target: T2, chloramphenicol acetyltransferase (CAT); conditions: 0.5 mM probe, 2 mM acetyl-CoA, 5 minutes; versus control lysate
Protocol: Enzymatic activity assay—Overnight cultures of E. coli DH1 harboring either pBbB8k-GFP or pBbB8k-CAT were diluted 1:10 in LB with 50 μg mL^−1 kanamycin, and grown for 1 hour at 37° C., after which they were induced with 0.2% (w/v) arabinose. After 2 hours of growth, 0.5 mL of the culture was centrifuged at ˜12000×g for 1 minute, the pellet was resuspended in 0.25 mL aqueous 50 mM sodium phosphate (pH 7.5) and sonicated for 30 seconds. Acetyl-CoA was added to a final concentration of 2 mM and 11 to a final concentration of 0.5 mM. The mixture was mixed and incubated at room temperature for 5 minutes, and subsequently quenched with an equal volume of methanol. A 0.3 μL droplet of the mixture was spotted onto a NIMS chip, and the excess liquid removed 5 seconds later by touching it with a Kimwipe (Kimberly-Clark). The spotted area was washed twice with 1 μL deionized water. The NIMS chip was taped to a modified standard MALDI plate, which was then loaded into an Applied Biosystems 4800 MALDI time of flight (TOF)//TOF mass spectrometer. […] Spectra were acquired in manual mode and positive polarity.

T2 sequence (P62577 whole entry, looked up): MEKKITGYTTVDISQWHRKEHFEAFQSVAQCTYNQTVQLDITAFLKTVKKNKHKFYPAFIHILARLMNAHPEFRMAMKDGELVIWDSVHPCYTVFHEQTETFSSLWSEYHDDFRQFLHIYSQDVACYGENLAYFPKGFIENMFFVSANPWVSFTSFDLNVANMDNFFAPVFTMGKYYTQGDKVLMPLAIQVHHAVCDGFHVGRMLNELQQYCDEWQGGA
T1 sequence (P14779 whole entry): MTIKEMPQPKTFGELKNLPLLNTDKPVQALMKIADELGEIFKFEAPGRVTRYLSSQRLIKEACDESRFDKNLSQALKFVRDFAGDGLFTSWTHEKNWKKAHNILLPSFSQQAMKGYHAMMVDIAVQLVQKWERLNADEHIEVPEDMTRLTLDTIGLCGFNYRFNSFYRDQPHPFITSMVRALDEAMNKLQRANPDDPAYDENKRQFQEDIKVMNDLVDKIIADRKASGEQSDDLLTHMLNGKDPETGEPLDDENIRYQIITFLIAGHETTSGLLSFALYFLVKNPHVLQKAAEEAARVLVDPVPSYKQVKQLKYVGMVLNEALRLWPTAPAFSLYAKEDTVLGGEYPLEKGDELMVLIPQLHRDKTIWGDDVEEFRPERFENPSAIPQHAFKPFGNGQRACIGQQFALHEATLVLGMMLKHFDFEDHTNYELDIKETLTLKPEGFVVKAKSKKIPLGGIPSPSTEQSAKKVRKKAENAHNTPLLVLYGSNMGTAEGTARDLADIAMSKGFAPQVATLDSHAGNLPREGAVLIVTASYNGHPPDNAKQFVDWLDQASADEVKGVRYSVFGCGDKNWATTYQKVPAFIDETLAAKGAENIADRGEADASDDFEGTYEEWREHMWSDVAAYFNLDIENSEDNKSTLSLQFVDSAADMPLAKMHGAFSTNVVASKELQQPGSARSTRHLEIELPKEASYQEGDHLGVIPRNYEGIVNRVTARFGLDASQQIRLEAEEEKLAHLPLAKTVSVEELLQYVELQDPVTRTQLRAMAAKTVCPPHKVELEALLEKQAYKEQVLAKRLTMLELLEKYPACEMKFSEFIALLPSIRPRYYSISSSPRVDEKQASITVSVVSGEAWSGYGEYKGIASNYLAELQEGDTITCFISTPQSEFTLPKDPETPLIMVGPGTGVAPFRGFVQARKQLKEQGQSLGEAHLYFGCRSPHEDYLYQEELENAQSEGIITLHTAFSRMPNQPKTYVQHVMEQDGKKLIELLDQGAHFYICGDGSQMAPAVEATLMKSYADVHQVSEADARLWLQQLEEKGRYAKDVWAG

## [N-]=[N+]=NCCOC(=O)C1=CCCCC1 [CAEE, cyclohexenecarboxylate azidoethyl ester]
[1]
  conversion of probe by cytochrome P450BM3 (NIMS mass shift): 16-mass unit shift relative to the GFP control

## C#CCCCC(=O)N[C@H](CO)[C@H](O)c1ccc([N+](=O)[O-])cc1 [ChlorHexy, chloramphenicol 5-hexynamide]
[2]
  CAT activity detected with probe: CAT activity was detected
[3]
  CAT activity detected with probe: CAT activity was detected

## O=C[C@H](O)[C@@H](O)[C@H](O[C@@H]1O[C@H](CO)[C@@H](O)[C@H](O)[C@H]1O)[C@H](O)CO [cellobiose]
[4]
  Km: 12.1 ± 4.6 mM
  kcat: 1430 ± 850 s⁻¹
[5]
  Km: ~10 mM

## (1R,2R)-N-Nz-1-(4-nitrophenyl)propane-1,3-diol [Compound 11]
[6]
  conversion of probe by CAT (NIMS mass shift): the peak shifts by 42 mass units, as expected from monoacetylation
